This is an account of results in PMC10136189, “A Tale of 12 Tails: Katanin Severing Activity Affected by Carboxy-Terminal Tail Sequences” (Biomolecules, 2023).

For assay [1], the target named is T1, human GFP-katanin p60 (Homo sapiens, UniProt O75449).
T1 construct: made in house; host or cells: Escherichia coli BL21(DE3)
Description: in vitro microtubule severing assay (loss of microtubule polymer). It is filed as biochemical. The conditions noted are these: for inhibition of katanin severing of microtubules (loss of polymer) / relative potency as inhibitor of katanin binding and severing (comparison in words): inhibitor 0-2 μM; for inhibition of katanin severing of microtubules (loss of polymer): taxol-stabilized rhodamine microtubules, Katanin Activity Buffer pH 7.7, 2 mM ATP, 5 min movies; for relative potency as inhibitor of katanin binding and severing (comparison in words): compared with other CTTs or whole tubulin. How it is done:
(§1) In this work, we use the in vitro microtubule severing assay to quantitatively characterize the microtubule binding and severing ability of human GFP-katanin p60 in the presence of different CTT sequences. First, we ensure that our human GFP-katanin p60 can robustly and reproducibly sever microtubules and completely remove all polymer within 3–5 min (Figure 1A). As each katanin prep has slightly different activity and the activity can fluctuate (Supplemental Figure S1), we perform control experiments each day to determine the optimal katanin concentration needed and to serve as a control without added inhibitors (Figure 1A). For simplicity we use “katanin” to refer to human GFP-katanin p60 for the remainder of this manuscript.
(§2) Flow chambers with 10 μL channels were made by adhering double-stick tape (3M, St. Paul, MN, USA) to a microscope slide and attaching a silanized coverslip cross-wise. Silanized coverslips were UVO sterilized, cleaned with rinses of acetone, ethanol, 0.1 M KOH, and ddH20 before coating with PlusOne Repel-Silane 2% dimethyldichlorosilane (Cytiva, Marlborough, MA, USA). Samples were made in the chambers by flowing through the chamber using a pipette and filter paper to wick from the other side. For severing assays, we first flowed 5% MAB1864 tubulin YL ½ antibody (Merck-Millipore, Billerica, MA, USA) in PEM-100 for three minutes to provide a binding site for microtubules. Second, we flowed 5% (w/v) Pluronic F127 to act as a polymer brush to block the surface, allowing three minutes for incubation. Next, we flowed 10% rhodamine-labeled microtubules diluted 1:100 (final tubulin concentration 454 nM) and allowed them to adhere for three minutes. During the incubation, an aliquot of katanin was rapidly defrosted from −80 °C and diluted to assay concentration. The chamber was then washed with Katanin Activity Buffer (20 mM HEPES pH 7.7, 10% glycerol, 2 mM MgCl2, 2 mM ATP, 0.025 mg/mL BSA, 0.05% F127, 10 mM dithiothreitol (DTT), 15 mg/mL glucose, 0.15 mg/mL catalase, […]) to remove excess unadhered microtubules. The chamber was then situated on the microscope to find a good field for the assay before flowing Katanin Activity Buffer with GFP-katanin and CTT tails at their respective concentrations.
(§3) Imaging was performed using epifluorescence and total internal reflection (TIRF) with a home-built laser illumination system around a Nikon Ti-E microscope (Nikon USA, Melville, NY, USA). Epifluorescence was used to image rhodamine microtubules in the red channel, and TIRF was used to image GFP-katanin illuminating with a 488 nm laser. Images were collected with a 60x, oil-coupled TIRF objective with a numerical aperture of 1.49 (Nikon USA, Melville, NY, USA). The two-color imaging was performed using shuttering the red channel (400–800 ms exposure) and green channel (70–200 ms exposure) sequentially. The 5 min movies recorded with 3 s intervals using Nikon Elements software (Nikon USA, Melville, NY, USA) driving an Ixon EMCCD camera (Andor, Belfast, Northern Ireland) with a final pixel size of 160 nm. Movie data were saved as a 16-bit time series as nd2 files with metadata. Movies were started recording before the GFP-katanin mixture was flowed while imaging. After the 5 min, a new field of view was imaged to ensure that the loss of microtubule polymer was universal in the chamber and not due to imaging conditions.
Each of the 64 treatments were run two to three times for replication and for obtaining 15–20 MTs for analysis. Four control chambers were run each day to ensure chamber activity was caused by the respective treatment conditions. […] Next, the concentration needed to sever microtubules within 2–3 min is determined in the presence of ATP. Once the optimal katanin concentration is determined, the assay is repeated in the absence of ATP to again test the imaging conditions in the presence of a GFP-katanin binding to microtubules. […]

Assay [2] deals with T1, human GFP-katanin p60. Description: GFP-katanin binding to microtubules (TIRF intensity) in the severing assay. As to conditions: inhibitor 0-2 μM; GFP intensity normalized to same day control without inhibitor; pH 7.7, 2 mM ATP. How it is done:
as §1, §2
as §3, with “Movie data were saved as a 16-bit time series as nd2 files with metadata. Movies were started recording before the GFP-katanin mixture was flowed while imaging. After the 5 min, a new field of view was imaged to ensure that the loss of microtubule polymer was universal in the chamber and not due to imaging conditions.” left out
Each of the 64 treatments were run two to three times for replication and for obtaining 15–20 MTs for analysis. […] Next, the concentration needed to sever microtubules within 2–3 min is determined in the presence of ATP. Once the optimal katanin concentration is determined, the assay is repeated in the absence of ATP to again test the imaging conditions in the presence of a GFP-katanin binding to microtubules. […]

T1 sequence (O75449 whole entry): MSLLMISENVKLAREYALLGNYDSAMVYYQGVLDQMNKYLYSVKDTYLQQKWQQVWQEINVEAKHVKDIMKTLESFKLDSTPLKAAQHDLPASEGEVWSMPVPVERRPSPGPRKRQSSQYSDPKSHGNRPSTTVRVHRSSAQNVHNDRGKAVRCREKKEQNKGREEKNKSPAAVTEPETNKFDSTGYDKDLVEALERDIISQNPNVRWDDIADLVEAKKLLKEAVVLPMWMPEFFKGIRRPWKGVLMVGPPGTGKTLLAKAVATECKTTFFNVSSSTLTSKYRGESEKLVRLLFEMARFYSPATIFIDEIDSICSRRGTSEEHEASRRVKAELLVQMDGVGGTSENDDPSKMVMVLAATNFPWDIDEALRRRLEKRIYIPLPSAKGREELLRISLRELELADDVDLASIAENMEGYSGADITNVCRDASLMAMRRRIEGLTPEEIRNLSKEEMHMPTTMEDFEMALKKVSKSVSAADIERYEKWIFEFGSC

For the sequence “A T A DE Q G E F EEEE G EDE A [Beta2 (TUBB2A)]”, at human GFP-katanin p60 [1], the “inhibition of katanin severing of microtubules (loss of polymer)” value (“inhibition … (loss of polymer)” below) was “more beta2a CTT is needed to inhibit”. At human GFP-katanin p60 [2], the “inhibition of GFP-katanin binding to microtubules” value (“inhibition of GFP-katanin binding” for short) is listed as “more beta2a CTT is needed to inhibit”.

Regarding A T A DDDDDDDDDD [D10], the “inhibition … (loss of polymer)” value on human GFP-katanin p60 [1] is recorded as “can inhibit”. In addition, on human GFP-katanin p60 [2], the “inhibition of GFP-katanin binding” value is recorded as “can inhibit”.

On to “DSFEEENEGEEF [alpha8, human alpha8 tubulin tail, only alpha tail with a C-terminal F; hydrophobicity calculated, not tested]”, for which the “predicted ability to inhibit katanin severing” value on human GFP-katanin p60 [1] (prediction from hydrophobicity and C-terminal phenylalanine, not tested) was “unable to inhibit katanin severing”.

Take “A T A EEEED F G EE A EEE Y [Beta5-A+Y, artificial beta5 CTT with the last amino acid (A) replaced with a tyrosine]”: the “inhibition … (loss of polymer)” value on human GFP-katanin p60 [1] is on record as “far less potent as a katanin inhibitor”. Moreover, the “inhibition of GFP-katanin binding” value on human GFP-katanin p60 [2] is “does not affect katanin binding”.

On to A T A EEEEEEEEEE [E10], for which the “inhibition … (loss of polymer)” value against human GFP-katanin p60 [1] is listed as “can inhibit”. Moreover, the “inhibition of GFP-katanin binding” value at human GFP-katanin p60 [2] is given as “can inhibit”.

Take “A T A EEEED M Y EDDDEE S E A Q G P K [Beta3 (TUBB3)]”: the “inhibition … (loss of polymer)” value on human GFP-katanin p60 [1] is reported as “cannot inhibit katanin severing”. Further, the “inhibition of GFP-katanin binding” value on human GFP-katanin p60 [2] was “little inhibition of GFP-katanin binding”.

Consider “A T A EEEED F G EE A EEE A [Beta5 (TUNN/TUBB5)]”, for which the “relative potency as inhibitor of katanin binding and severing (comparison in words)” value at human GFP-katanin p60 [1] (listed as beta5 CTT) is on record as “most potent inhibitor of the CTTs we tested”; on human GFP-katanin p60 [1] (listed as beta5 tubulin CTT), “better at inhibiting katanin than whole tubulin”. Besides, at human GFP-katanin p60 [1], the “inhibition … (loss of polymer)” value is “severing is inhibited”.
